Reference: US20130035246A1, “Method and Apparatus for Determining a Mammal's Exposure to Chemical or Biological Agents” ([…], INC., priority 2011, published 2013)

Test system: peripheral blood mononuclear cell (PBMC) cultures
Experiment: Cytokine expression in PBMC cultures challenged with mold cells or PHA (multiplex immunoassay)
Format: cell-based, human
Conditions: PBMC from healthy volunteers, 18 hours
From the text: PBMC were isolated from blood collected from patients and control subjects as previously described [Gillis B, Gavin I M, Arbieva Z, King S T, Jayaraman S, Prabhakar B S. Identification of human cell responses to benzene and benzene metabolites. Genomics 2007; 90: 324-333 and Gavin I M, Gillis B, Arbieva Z, Prabhakar B S. Identification of human cell responses to hexavalent chromium. Environ Mol Mutagen 2007; 48: 650-657.] and incorporated herein by reference. One milliliter of blood plasma was also collected from the blood samples and stored frozen at −80° C. […]
After overnight culture of the PMBC, one milliliter of supernatant was removed from each plate, centrifuged at 16,000 g at +4° C. for 10 minutes, and clear cell-free culture media were collected. Cytokine concentrations in culture supernatants, as well as in plasma, were measured by multiplex immunoassay based on Luminex xMAP™ bead array technology using a Bio-Plex 200 fluorescence bead reader (BioRad Laboratories, Hercules, Calif.). […]
Statistical analyses were performed with Microsoft Excel and Analyse-it software (Analyse-it Software Ltd., Leeds, UK). An increase of cytokine expression in immunologic challenges was evaluated using a Student's t-test. […] The statistical significance of the difference in responses to various immunologic challenges was evaluated by using a one-way ANOVA test with Tukey type I error correction. […]

Q: phytohemagglutinin [PHA] was tested. Which “IL-2, IL-4 and IL-5 in culture supernatants” value did it give?
A: Its value is “detected”.
